# Legend:
# Type in all cases: in vivo
# [1] = system: redroot pigweed (Amaranthus retroflexus, AMARE); experiment: Pre-emerge test, greenhouse herbicide activity screening; conditions: rating scale 0-100, 14 days after application
# Procedure, shortened: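 Plants grown in 10 cm pots of sandy loam mix received acetone-dissolved compounds through a moving flat-fan nozzle. Doses ranged from 15 to 1000 g ai/ha. Pre-emerge pots were seeded one day earlier, post-emerge pots 8–21 days earlier. Fourteen days on, each pot was graded 0–100 for damage.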
# [2] = system: barnyardgrass (Echinochloa crus-galli, ECHCG); experiment: as above; conditions: rating scale 0-100, 14 days after application
# Procedure, shortened: (§1)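 Visual ratings on a 0-100 scale (0 no damage, 100 all plants dead) were taken at 14 days after treatment. Rates of 15-1000 g ai/ha in acetone, 187 l/ha, were sprayed onto soil one day after planting (pre-emerge) or onto 2-3 leaf plants with 0.25% v/v surfactant (post-emerge).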
# [3] = system: green foxtail (Setaria viridis, SETVI); experiment: as above; conditions: rating scale 0-100, 14 days after application
# Procedure, shortened: as §1
# [4] = system: ivyleaf morningglory (Ipomoea hederacea, IPOHE); experiment: as above; conditions: rating scale 0-100, 14 days after application
# Procedure, shortened: as §1
# [5] = system: johnsongrass (Sorghum halepense, SORHA); experiment: as above; conditions: rating scale 0-100, 14 days after application
# Procedure, shortened: as §1
# [6] = system: lambsquarters (Chenopodium album, CHEAL); experiment: as above; conditions: rating scale 0-100, 14 days after application
# Procedure, shortened: as §1
# [7] = system: large crabgrass (Digitaria sanguinalis, DIGSA); experiment: as above; conditions: rating scale 0-100, 14 days after application
# Procedure, shortened: as §1
# [8] = system: sicklepod (Cassia obtusifolia, CASOB); experiment: as above; conditions: rating scale 0-100, 14 days after application
# Procedure, shortened: as §1
# [9] = system: velvetleaf (Abutilon theophrasti, ABUTH); experiment: as above; conditions: rating scale 0-100, 14 days after application
# Procedure, shortened: as §1
# [10] = system: field corn (Zea mays L., var. Dekalb 535, CORN); experiment: Pre-emerge test, crop safety; conditions: rating scale 0-100, 14 days after application
# Procedure, shortened: (§2)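 Sandy loam pots; pre-emerge: sown 1 d pre-spray, surface-watered after, then bottom-watered. Post-emerge: sown 8–21 d before, 2–3 leaf stage, + 0.25% v/v NIS, bottom-watered. Acetone, 187 l/ha track spray, 15–1000 g ai/ha. 0–100 injury score, day 14.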
# [11] = system: upland rice (Oryza sp., var. Tebonnet, RICE); experiment: Pre-emerge test, crop safety; conditions: rating scale 0-100, 14 days after application
# Procedure, shortened: as §2
# [12] = system: barnyardgrass (Echinochloa crus-galli, ECHCG); experiment: Post-emerge test, greenhouse herbicide activity screening; conditions: rating scale 0-100 (0 no damage, 100 complete death), 14 days after application
# Procedure, shortened: (§3)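 Each test used a mechanized track sprayer delivering 187 l/ha of acetone solution at 15–1000 g ai/ha. Post-emerge foliage at 2–3 leaves was treated with added 0.25% v/v non-ionic surfactant and bottom-watered only. Injury was assessed on day 14, where 100 means total kill.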
# [13] = system: common ragweed (Ambrosia artemisizfolia L., AMBEL); experiment: as above; conditions: rating scale 0-100 (0 no damage, 100 complete death), 14 days after application
# Procedure, shortened: as §3
# [14] = system: green foxtail (Setaria viridis, SETVI); experiment: as above; conditions: rating scale 0-100 (0 no damage, 100 complete death), 14 days after application
# Procedure, shortened: as §3
# [15] = system: ivyleaf morningglory (Ipomoea hederacea, IPOHE); experiment: as above; conditions: rating scale 0-100 (0 no damage, 100 complete death), 14 days after application
# Procedure, shortened: as §3
# [16] = system: johnsongrass (Sorghum halepense, SORHA); experiment: as above; conditions: rating scale 0-100 (0 no damage, 100 complete death), 14 days after application
# Procedure, shortened: as §3
# [17] = system: lambsquarters (Chenopodium album, CHEAL); experiment: as above; conditions: rating scale 0-100 (0 no damage, 100 complete death), 14 days after application
# Procedure, shortened: as §3
# [18] = system: large crabgrass (Digitaria sanguinalis, DIGSA); experiment: as above; conditions: rating scale 0-100 (0 no damage, 100 complete death), 14 days after application
# Procedure, shortened: as §3
# [19] = system: redroot pigweed (Amaranthus retroflexus, AMARE); experiment: as above; conditions: rating scale 0-100 (0 no damage, 100 complete death), 14 days after application
# Procedure, shortened: as §3
# [20] = system: sicklepod (Cassia obtusifolia, CASOB); experiment: as above; conditions: rating scale 0-100 (0 no damage, 100 complete death), 14 days after application
# Procedure, shortened: as §3
# [21] = system: velvetleaf (Abutilon theophrasti, ABUTH); experiment: as above; conditions: rating scale 0-100 (0 no damage, 100 complete death), 14 days after application
# Procedure, shortened: as §3
# [22] = system: field corn (Zea mays L., var. Dekalb 535, CORN); experiment: Post-emerge test, crop safety; conditions: rating scale 0-100 (0 no damage, 100 complete death), 14 days after application
# Procedure, shortened: as §1
# [23] = system: upland rice (Oryza sp., var. Tebonnet, RICE); experiment: Post-emerge test, crop safety; conditions: rating scale 0-100 (0 no damage, 100 complete death), 14 days after application
# Procedure, shortened: as §1
smiles,measurement,setting,value
CCCCCOC(=O)C(C)(Cl)Cc1c(OC)c(Cl)cc(F)c1-n1c(=O)cc(C(F)(F)F)n(C)c1=O (stereo not shown) [14-37],"Pre-emerge herbicidal activity, phytotoxicity rating AMARE",[1]; 63 g ai/ha,100
same,"Pre-emerge herbicidal activity, phytotoxicity rating AMARE",[1]; 250 g ai/ha,100
same,"Pre-emerge herbicidal activity, phytotoxicity rating ECHCG",[2]; 63 g ai/ha,0
same,"Pre-emerge herbicidal activity, phytotoxicity rating ECHCG",[2]; 250 g ai/ha,99
same,"Pre-emerge herbicidal activity, phytotoxicity rating SETVI",[3]; 63 g ai/ha,0
same,"Pre-emerge herbicidal activity, phytotoxicity rating SETVI",[3]; 250 g ai/ha,95
same,"Pre-emerge herbicidal activity, phytotoxicity rating IPOHE",[4]; 63 g ai/ha,0
same,"Pre-emerge herbicidal activity, phytotoxicity rating IPOHE",[4]; 250 g ai/ha,0
same,"Pre-emerge herbicidal activity, phytotoxicity rating SORHA",[5]; 63 g ai/ha,0
same,"Pre-emerge herbicidal activity, phytotoxicity rating SORHA",[5]; 250 g ai/ha,0
same,"Pre-emerge herbicidal activity, phytotoxicity rating CHEAL",[6]; 63 g ai/ha,100
same,"Pre-emerge herbicidal activity, phytotoxicity rating CHEAL",[6]; 250 g ai/ha,100
same,"Pre-emerge herbicidal activity, phytotoxicity rating DIGSA",[7]; 63 g ai/ha,0
same,"Pre-emerge herbicidal activity, phytotoxicity rating DIGSA",[7]; 250 g ai/ha,100
same,"Pre-emerge herbicidal activity, phytotoxicity rating CASOB",[8]; 63 g ai/ha,0
same,"Pre-emerge herbicidal activity, phytotoxicity rating CASOB",[8]; 250 g ai/ha,0
same,"Pre-emerge herbicidal activity, phytotoxicity rating ABUTH",[9]; 63 g ai/ha,90
same,"Pre-emerge herbicidal activity, phytotoxicity rating ABUTH",[9]; 250 g ai/ha,100
same,"Pre-emerge phytotoxicity rating, crop damage CORN",[10]; 63 g ai/ha,0
same,"Pre-emerge phytotoxicity rating, crop damage CORN",[10]; 250 g ai/ha,0
same,"Pre-emerge phytotoxicity rating, crop damage RICE",[11]; 63 g ai/ha,0
same,"Pre-emerge phytotoxicity rating, crop damage RICE",[11]; 250 g ai/ha,80
same,"Post-emerge Herbicidal Activity, phytotoxicity rating ECHCG",[12]; Rate 63 g ai/ha,100
same,"Post-emerge Herbicidal Activity, phytotoxicity rating ECHCG",[12]; Rate 250 g ai/ha,100
same,"Post-emerge Herbicidal Activity, phytotoxicity rating AMBEL",[13]; Rate 63 g ai/ha,100
same,"Post-emerge Herbicidal Activity, phytotoxicity rating AMBEL",[13]; Rate 250 g ai/ha,100
same,"Post-emerge Herbicidal Activity, phytotoxicity rating SETVI",[14]; Rate 63 g ai/ha,90
same,"Post-emerge Herbicidal Activity, phytotoxicity rating SETVI",[14]; Rate 250 g ai/ha,100
same,"Post-emerge Herbicidal Activity, phytotoxicity rating IPOHE",[15]; Rate 63 g ai/ha,30
same,"Post-emerge Herbicidal Activity, phytotoxicity rating IPOHE",[15]; Rate 250 g ai/ha,100
same,"Post-emerge Herbicidal Activity, phytotoxicity rating SORHA",[16]; Rate 63 g ai/ha,0
same,"Post-emerge Herbicidal Activity, phytotoxicity rating SORHA",[16]; Rate 250 g ai/ha,30
same,"Post-emerge Herbicidal Activity, phytotoxicity rating CHEAL",[17]; Rate 63 g ai/ha,100
same,"Post-emerge Herbicidal Activity, phytotoxicity rating CHEAL",[17]; Rate 250 g ai/ha,100
same,"Post-emerge Herbicidal Activity, phytotoxicity rating DIGSA",[18]; Rate 63 g ai/ha,80
same,"Post-emerge Herbicidal Activity, phytotoxicity rating DIGSA",[18]; Rate 250 g ai/ha,100
same,"Post-emerge Herbicidal Activity, phytotoxicity rating AMARE",[19]; Rate 63 g ai/ha,100
same,"Post-emerge Herbicidal Activity, phytotoxicity rating AMARE",[19]; Rate 250 g ai/ha,100
same,"Post-emerge Herbicidal Activity, phytotoxicity rating CASOB",[20]; Rate 63 g ai/ha,20
same,"Post-emerge Herbicidal Activity, phytotoxicity rating CASOB",[20]; Rate 250 g ai/ha,50
same,"Post-emerge Herbicidal Activity, phytotoxicity rating ABUTH",[21]; Rate 63 g ai/ha,100
same,"Post-emerge Herbicidal Activity, phytotoxicity rating ABUTH",[21]; Rate 250 g ai/ha,100
same,Post-emerge phytotoxicity rating CORN (crop damage),[22]; Rate 63 g ai/ha,20
same,Post-emerge phytotoxicity rating CORN (crop damage),[22]; Rate 250 g ai/ha,95
same,Post-emerge phytotoxicity rating RICE (crop damage),[23]; Rate 63 g ai/ha,70
same,Post-emerge phytotoxicity rating RICE (crop damage),[23]; Rate 250 g ai/ha,100

# From patent US6355799B1, “Substituted benzene compounds, process for their preparation, and herbicidal and defoliant compositions containing them” (ISK Americas Incorporated, priority 1997, dated 2002)
